This is an account of results in ChEMBL document CHEMBL3124838, “Discovery of 6-aryl-azabenzimidazoles that inhibit the TBK1/IKK-ε kinases” (Bioorg Med Chem Lett, 2014).

SMILES strings stand for the structures.

For test [1], the target named is T1, Discoidin domain-containing receptor 2 (Homo sapiens) (UniProt Q16832).
T1 sequence (whole entry): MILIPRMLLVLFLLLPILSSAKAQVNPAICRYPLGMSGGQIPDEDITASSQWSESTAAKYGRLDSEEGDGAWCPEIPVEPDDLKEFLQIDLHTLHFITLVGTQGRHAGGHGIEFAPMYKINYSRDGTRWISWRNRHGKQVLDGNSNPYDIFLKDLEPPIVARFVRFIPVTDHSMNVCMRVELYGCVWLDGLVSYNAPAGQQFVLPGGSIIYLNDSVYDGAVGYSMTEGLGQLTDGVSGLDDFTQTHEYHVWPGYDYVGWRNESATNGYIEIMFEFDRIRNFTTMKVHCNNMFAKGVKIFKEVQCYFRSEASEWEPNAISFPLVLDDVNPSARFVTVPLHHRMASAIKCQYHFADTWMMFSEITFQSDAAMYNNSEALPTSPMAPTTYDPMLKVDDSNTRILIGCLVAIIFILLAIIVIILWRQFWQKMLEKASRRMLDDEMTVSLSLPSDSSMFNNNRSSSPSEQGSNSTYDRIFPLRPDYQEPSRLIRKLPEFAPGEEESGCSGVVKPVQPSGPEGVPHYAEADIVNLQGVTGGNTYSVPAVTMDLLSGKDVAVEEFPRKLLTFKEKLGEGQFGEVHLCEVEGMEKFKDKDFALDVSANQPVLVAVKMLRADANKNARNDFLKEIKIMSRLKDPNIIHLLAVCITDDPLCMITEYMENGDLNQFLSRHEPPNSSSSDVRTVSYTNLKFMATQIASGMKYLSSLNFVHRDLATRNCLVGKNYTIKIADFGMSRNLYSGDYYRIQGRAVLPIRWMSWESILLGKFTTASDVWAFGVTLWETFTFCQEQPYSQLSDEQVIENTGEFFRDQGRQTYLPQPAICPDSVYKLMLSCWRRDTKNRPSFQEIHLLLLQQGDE
The test can be described thus: Inhibition of human DDR2 assessed as residual activity at 1 uM relative to control.

Test [2] deals with Tyrosine-protein kinase Fes/Fps (Homo sapiens) (UniProt P07332). The test is described as follows: Inhibition of human FES assessed as residual activity at 1 uM relative to control.
The target of test [3] is Tyrosine-protein kinase Lyn (Homo sapiens) (UniProt P07948). The test can be described thus: Inhibition of human LYN assessed as residual activity at 1 uM relative to control.
The target of test [4] is Focal adhesion kinase 1 (Homo sapiens) (UniProt Q05397). The test can be described thus: Inhibition of human FAK assessed as residual activity at 1 uM relative to control.
In test [5] the target is T2, Tyrosine-protein kinase receptor TYRO3 (Homo sapiens) (UniProt Q06418).
T2 sequence (whole entry): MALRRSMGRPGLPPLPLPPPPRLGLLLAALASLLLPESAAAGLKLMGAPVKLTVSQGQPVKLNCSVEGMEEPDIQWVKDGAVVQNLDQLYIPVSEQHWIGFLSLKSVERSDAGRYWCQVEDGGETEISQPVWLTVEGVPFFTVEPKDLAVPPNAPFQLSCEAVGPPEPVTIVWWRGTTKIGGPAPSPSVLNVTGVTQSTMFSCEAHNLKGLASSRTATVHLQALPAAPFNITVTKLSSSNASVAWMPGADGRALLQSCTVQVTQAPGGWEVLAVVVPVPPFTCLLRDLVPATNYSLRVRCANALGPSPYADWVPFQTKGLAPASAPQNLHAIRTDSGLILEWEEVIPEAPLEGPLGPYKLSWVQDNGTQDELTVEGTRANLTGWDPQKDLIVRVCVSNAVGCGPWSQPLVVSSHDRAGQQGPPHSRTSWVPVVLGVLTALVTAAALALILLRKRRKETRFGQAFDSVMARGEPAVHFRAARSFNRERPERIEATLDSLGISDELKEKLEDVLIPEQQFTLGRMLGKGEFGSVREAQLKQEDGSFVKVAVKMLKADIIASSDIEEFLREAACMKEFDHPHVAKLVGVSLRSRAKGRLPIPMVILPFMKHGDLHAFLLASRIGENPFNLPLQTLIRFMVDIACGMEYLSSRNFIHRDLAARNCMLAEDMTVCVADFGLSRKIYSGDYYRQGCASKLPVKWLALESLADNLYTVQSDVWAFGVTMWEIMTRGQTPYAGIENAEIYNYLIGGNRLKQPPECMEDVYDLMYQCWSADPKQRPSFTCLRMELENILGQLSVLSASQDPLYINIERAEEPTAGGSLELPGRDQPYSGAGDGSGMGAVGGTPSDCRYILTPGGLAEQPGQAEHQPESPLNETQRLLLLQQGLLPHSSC
The test is described as follows: Inhibition of human RSE assessed as residual activity at 1 uM relative to control.

Test [6] has as its target Dual specificity mitogen-activated protein kinase kinase 1 (Homo sapiens) (UniProt Q02750). The test is described as follows: Inhibition of human MEK1 assessed as residual activity at 1 uM relative to control.
In test [7] the target is T3, Serine/threonine-protein kinase Chk1 (Homo sapiens) (UniProt O14757).
T3 sequence (whole entry): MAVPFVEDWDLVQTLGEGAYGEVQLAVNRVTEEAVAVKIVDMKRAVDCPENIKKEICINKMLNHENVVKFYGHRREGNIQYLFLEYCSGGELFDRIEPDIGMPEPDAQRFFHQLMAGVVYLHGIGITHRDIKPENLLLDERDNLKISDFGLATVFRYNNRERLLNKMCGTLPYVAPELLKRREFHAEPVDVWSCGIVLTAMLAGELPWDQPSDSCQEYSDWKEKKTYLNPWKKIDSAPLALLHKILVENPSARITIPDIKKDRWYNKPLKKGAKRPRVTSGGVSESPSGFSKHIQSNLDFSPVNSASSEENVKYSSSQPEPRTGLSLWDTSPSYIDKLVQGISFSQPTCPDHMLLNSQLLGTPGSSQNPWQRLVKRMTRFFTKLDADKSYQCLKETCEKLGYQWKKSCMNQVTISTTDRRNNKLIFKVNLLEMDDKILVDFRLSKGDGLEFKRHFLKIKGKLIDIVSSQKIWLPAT
The test is described as follows: Inhibition of human CHK1 assessed as residual activity at 1 uM relative to control.

Sequence of Dual specificity mitogen-activated protein kinase kinase 1 (Homo sapiens) (Q02750 whole entry): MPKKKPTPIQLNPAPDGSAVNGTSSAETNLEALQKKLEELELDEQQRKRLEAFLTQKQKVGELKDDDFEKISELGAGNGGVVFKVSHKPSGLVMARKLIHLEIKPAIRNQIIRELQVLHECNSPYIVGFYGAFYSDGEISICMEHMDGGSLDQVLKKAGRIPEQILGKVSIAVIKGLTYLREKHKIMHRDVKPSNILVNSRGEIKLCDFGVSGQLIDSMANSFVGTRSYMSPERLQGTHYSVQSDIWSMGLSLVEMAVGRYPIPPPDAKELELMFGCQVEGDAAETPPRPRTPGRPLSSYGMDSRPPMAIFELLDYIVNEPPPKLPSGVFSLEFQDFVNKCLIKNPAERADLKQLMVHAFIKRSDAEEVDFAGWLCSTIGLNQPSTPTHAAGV
Sequence of Focal adhesion kinase 1 (Homo sapiens) (Q05397 2-1052 limits assumed): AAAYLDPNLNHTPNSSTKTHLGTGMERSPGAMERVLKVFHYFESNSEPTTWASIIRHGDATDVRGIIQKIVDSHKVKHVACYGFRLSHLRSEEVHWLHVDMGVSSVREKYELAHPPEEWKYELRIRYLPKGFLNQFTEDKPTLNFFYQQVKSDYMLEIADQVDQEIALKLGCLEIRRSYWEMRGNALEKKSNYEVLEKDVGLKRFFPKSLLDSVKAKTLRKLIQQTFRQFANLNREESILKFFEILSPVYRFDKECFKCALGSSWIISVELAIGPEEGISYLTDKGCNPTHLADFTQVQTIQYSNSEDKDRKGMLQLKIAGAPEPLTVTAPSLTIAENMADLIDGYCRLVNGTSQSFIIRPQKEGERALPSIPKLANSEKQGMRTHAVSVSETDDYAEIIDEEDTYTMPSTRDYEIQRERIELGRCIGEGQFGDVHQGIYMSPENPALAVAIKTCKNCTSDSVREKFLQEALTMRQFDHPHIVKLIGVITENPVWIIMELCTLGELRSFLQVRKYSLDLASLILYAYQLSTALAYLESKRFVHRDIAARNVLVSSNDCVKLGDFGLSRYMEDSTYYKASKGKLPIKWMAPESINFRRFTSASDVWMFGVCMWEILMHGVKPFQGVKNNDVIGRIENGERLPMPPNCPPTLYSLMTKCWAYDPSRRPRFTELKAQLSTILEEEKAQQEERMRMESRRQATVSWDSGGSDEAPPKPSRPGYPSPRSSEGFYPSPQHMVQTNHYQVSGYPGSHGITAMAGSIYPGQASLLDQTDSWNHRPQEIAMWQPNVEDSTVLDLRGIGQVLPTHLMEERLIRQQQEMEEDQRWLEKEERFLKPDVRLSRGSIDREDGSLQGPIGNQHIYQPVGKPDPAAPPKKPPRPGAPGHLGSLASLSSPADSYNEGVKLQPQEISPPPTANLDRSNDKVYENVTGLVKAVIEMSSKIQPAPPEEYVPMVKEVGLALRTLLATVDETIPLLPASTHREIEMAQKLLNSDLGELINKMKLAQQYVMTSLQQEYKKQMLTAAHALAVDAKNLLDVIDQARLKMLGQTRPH
Sequence of Tyrosine-protein kinase Lyn (Homo sapiens) (P07948 2-512 limits assumed): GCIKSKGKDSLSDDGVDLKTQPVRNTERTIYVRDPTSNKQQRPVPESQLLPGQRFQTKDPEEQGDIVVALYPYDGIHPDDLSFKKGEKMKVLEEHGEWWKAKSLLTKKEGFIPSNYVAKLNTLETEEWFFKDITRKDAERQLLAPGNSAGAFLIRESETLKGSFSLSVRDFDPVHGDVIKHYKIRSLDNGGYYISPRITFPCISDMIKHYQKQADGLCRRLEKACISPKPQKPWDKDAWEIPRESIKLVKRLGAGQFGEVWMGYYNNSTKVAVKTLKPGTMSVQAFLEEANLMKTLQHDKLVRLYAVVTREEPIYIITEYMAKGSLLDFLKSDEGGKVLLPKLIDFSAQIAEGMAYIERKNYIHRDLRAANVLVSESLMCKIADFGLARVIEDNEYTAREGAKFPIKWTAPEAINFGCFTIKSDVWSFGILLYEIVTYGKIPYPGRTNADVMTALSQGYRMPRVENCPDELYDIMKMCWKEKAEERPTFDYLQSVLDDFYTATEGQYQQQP
Sequence of Tyrosine-protein kinase Fes/Fps (Homo sapiens) (P07332 whole entry): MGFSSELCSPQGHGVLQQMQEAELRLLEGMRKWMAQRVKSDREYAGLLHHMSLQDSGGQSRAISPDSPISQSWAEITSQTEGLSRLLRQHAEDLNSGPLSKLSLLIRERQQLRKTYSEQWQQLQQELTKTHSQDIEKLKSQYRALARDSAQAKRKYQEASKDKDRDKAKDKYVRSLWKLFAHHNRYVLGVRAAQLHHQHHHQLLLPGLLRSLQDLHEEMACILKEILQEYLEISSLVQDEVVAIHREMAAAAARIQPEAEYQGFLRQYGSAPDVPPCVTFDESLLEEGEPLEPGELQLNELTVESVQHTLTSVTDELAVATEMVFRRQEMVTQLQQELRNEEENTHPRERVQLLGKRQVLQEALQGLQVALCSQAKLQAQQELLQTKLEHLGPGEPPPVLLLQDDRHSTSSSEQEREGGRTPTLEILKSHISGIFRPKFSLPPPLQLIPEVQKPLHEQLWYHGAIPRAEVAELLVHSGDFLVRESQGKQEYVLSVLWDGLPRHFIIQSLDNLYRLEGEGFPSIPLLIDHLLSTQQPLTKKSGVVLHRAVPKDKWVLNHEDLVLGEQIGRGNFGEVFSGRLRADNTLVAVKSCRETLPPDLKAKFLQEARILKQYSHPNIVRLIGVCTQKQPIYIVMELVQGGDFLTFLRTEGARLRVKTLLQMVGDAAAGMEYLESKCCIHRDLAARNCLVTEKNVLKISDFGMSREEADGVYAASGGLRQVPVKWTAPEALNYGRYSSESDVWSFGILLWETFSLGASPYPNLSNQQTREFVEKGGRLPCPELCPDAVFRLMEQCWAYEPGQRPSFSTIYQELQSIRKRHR

As to `COc1ccc(-c2nc3cc(-c4csc(C(=O)NCC(C)(C)C)c4)cnc3[nH]2)cc1`, the Activity worked out at 100% in test [1]; 85% in test [2]; 61% in test [3]; 80% in test [4]; 104% in test [5]; 89% in test [6]. Also, in test [7], the Activity was 103%.
Turning to `COc1ccc(-c2nc3cc(-c4csc(C(=O)NCCC(C)C)c4)cnc3[nH]2)cc1`, the Activity was 101% in test [1]; 92% in test [2]; 39% in test [3]; 90% in test [4]; 104% in test [5]; 90% in test [6]. Moreover, in test [7], the Activity amounted to 90%.
Turning to `COc1ccc(-c2nc3cc(-c4csc(C(=O)NCC(C)C)c4)cnc3[nH]2)cc1`, the Activity in test [1] stood at 101%; in test [2] it was 92%; in test [3], 46%; in test [4], 91%; in test [5] it was 112%; in test [6], 86%. The Activity in test [7] was 99%.
